Data taken from patent publication US20240117431A1, “STEM-CELL BASED BIOMARKER DISCOVERY” (THE REGENTS OF THE UNIVERSITY OF CALIFORNIA, priority 2020, published 2024).

Assays:
mutants TgUPRT = experiment: Phosphoribosyltransferase activity with recombinant TgUPRT mutants; type: biochemical, Toxoplasma gondii; conditions: five recombinant TgUPRT mutants, FIG. 9A
Description: (§1) Enzyme activity assay: The standard activity assay was performed by incubating 10 μL of free extract or 0.5 μg of pure His-tag enzyme with 1 mM Phosphoribosyl pyrophosphate (PRPP), 1 mM uracil, 5 mM MgCl2 in 50 mM PBS buffer pH 7.4 in a final volume of 80 μL. The reaction mixture was incubated at 37° C. for 2-5 min (300 rpm). Enzyme was inactivated by adding 80 μL of cold methanol in ice-bath and heating for 5 min at 100° C. After centrifugation at 9000×g for 5 min, samples were half-diluted with water and the NMP production was analysed by HPLC to quantitatively measure the reaction products as described below in the analytical methods. All determinations were carried out in triplicate assuming Michaelis-Menten conditions, and the maximum error was below 5%. In such conditions, one international activity unit (IU) was defined as the amount of enzyme producing 1 μmol/min of UMP under the assay conditions.
(§2) Substrate specificity studies Enzymatic synthesis of the different pyrimidine nucleoside monophosphate (NMP) derivatives was carried out by incubating 0.5 μg of pure His-tag enzyme with 1 mM PRPP, 1 mM pyrimidine base and 5 mM MgCl2 in 50 mM PBS buffer pH 7.4 (1.6-3.2% v/v DSMO). The experiments were performed according to the standard assay. Subsequently, the reaction mixture was processed as described above and the NMP production was analyzed by HPLC.
Analytical methods: The production of NMPs was quantitatively measured with an ACE EXCEL 5 μm CN-ES 250×4.6 mm equilibrated with 100% trimethyl ammonium acetate at a flow rate of 0.8 mL/min. Retention times for the reference bases and NMPs (hereafter abbreviated according to the recommendations of the IUPAC-IUB Commission on Biochemical Nomenclature) were as follows: uracil (Ura), 4.7 min; 5-azido uracil (5-AUra). […]
Following these exciting observations, a more quantitative approach to examined for differences between enzyme mutants and their enzyme kinetics with the analogs. […] Each purified enzyme was incubated with the different substrates and phosphoribosyltransferase activity was measured (FIG. 9A).

TgUPRT (wild type) = target: T1, TgUPRT (wild type) (Toxoplasma gondii, UniProt Q26998); experiment: Specific activity of TgUPRT variants with uracil analog substrates in vitro (phosphoribosyltransferase, HPLC); type: biochemical; conditions: 0.5 μg enzyme in 80 μL, 37° C., 2-5 min, substrates 1 mM, PBS pH 7.4; DMSO none (Uracil, 5-BrVUra), 1.6% (5-EtUra, 5-AU, 5AMU), 3.2% (5-VUra)
T1 construct: made in house; host or cells: E. coli BL21(DE3)
Description: as §1, with “In such conditions, one international activity unit (IU) was defined as the amount of enzyme producing 1 μmol/min of UMP under the assay conditions.” left out
as §2, with “The experiments were performed according to the standard assay.” left out
Analytical methods: The production of NMPs was quantitatively measured with an ACE EXCEL 5 μm CN-ES 250×4.6 mm equilibrated with 100% trimethyl ammonium acetate at a flow rate of 0.8 mL/min. […]

[1] = test system: GFP-3×MT-TgUPRT HEK293T cells co-cultured with mCherry cells; experiment: Co-culture RT-qPCR enrichment of GFP transcript over mCherry; type: cell-based
Description: FIGS. 10A, 10B, 100, 10D, 10E show characterizing the stringency of the 2 (5VU)-mutant TgUPRT pair. […] Cells were transfected with TgUPRT variants and incubated with 2 at 1 mM final concentration for 24h. 2 incorporation was imaged using two-step labeling (1) IEDDA using tetrazene-biotin then followed by Alexa488-streptavidin. […] Streptavidin-HRP (Strep-HRP) was used for assessment of biotin level resulting from clicked RNA, and methylene blue (MeBI) staining served as loading control. […] Cells were treated the same as in panel 10B and the RNA appended with biotin and enriched before RT RT-qPCR.
Co-culture of HEK cells containing GFP or mCherry expression plasmids: HEK293 (5×105) cells seeded in 6-well plate. Thirty-six hour post seeding, HEK cells were transfected with 1 μg of single plasmid containing EGFP, mCherry, EGFP-TgUPRT-WT, or EGFP-TgUPRT-Mut. Twenty-four hour post transfection, transiently transfected HEK cells were trypsinized and seeded into a 5 cm plate. Equal amounts of cells (approximately 2×106 in total) where 1×10^6 cells containing GFP or GFP-TgUPRT plasmids and 1×10^6 cells containing mCherry construct) were co-cultured. Three co-culture conditions are Condition (A): mCherry and EGFP, Condition (B): mCherry and EGFP-WT-TgUPRT, and Condition (C): mCherry and EGFP-3×MT-TgUPRT (pKN-CMV-EGFP-TgUPRT-Mut16 or -Mut17). […]

T1 sequence (Q26998 whole entry): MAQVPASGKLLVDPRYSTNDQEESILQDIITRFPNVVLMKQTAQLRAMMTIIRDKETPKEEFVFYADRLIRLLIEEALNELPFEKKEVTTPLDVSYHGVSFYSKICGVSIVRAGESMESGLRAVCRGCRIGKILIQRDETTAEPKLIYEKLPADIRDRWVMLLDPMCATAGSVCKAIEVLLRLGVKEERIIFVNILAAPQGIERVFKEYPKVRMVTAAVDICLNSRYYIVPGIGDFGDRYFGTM

Row | SMILES | reactivity with the mutants (phosphoribosyltransferase activity) (mutants TgUPRT) | Specific Activity, TgUPRT (TgUPRT (wild type)) | enrichment of GFP transcript in -UPRT cells ([1]; co-culture, RT-qPCR) | enrichment of GFP transcript, triple mutant cells compared to no UPRT cells ([1]; {}) [fold]
1 | C#Cc1c[nH]c(=O)[nH]c1=O [compound 1, 5-ethynylpyrimidine-2,4(1H,3H)-dione] | 10 IU/mg | reactive | Background enrichment | 
2 | C=Cc1c[nH]c(=O)[nH]c1=O [compound 2, 5-Vinylpyrimidine-2,4(1H,3H)-dione] | increased dramatically | undetectable activity |  | ~100
